This note sets out measurements from PubChem BioAssay AID1329 (NMMLSC, 2008).

The source made the active and inactive calls. The rule behind the calls is not given here.

The target of this test is Induced myeloid leukemia cell differentiation protein Mcl-1 (Homo sapiens) (UniProt Q07820). The test can be described thus: Mcl-1/Bim interaction regulators – biochemical, bead-based flow cytometry, multiplexed, human, dose response (AID 1329). Particulars: Bim peptide-Mcl-1 binding, MCF.
Chain of Induced myeloid leukemia cell differentiation protein Mcl-1 (Homo sapiens) (Q07820 whole entry, looked up): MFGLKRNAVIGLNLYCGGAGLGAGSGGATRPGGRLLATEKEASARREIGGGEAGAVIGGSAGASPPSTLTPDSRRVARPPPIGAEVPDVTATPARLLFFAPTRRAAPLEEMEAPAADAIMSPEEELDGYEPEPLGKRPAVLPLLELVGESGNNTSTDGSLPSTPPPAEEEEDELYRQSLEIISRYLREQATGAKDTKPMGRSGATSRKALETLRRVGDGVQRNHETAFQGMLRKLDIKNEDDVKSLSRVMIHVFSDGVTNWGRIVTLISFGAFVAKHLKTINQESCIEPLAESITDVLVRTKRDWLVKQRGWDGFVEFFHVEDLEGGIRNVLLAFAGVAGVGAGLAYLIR
`N/C(Cc1ccc(Cl)c(Cl)c1)=N\OC(=O)c1cccs1`: the percent span result was “inactive”.
Regarding `O=C(N/N=C/c1ccc(O)c(O)c1O)/C(=C/c1ccc([N+](=O)[O-])cc1)NC(=O)c1ccccc1`, the percent span result was “inactive”.
Consider `O=C(Nc1cccc(-c2ccc3nncn3n2)c1)c1ccco1`, for which the percent span entry was “inactive”.
Turning to `COc1ccc(CCNC(=O)c2cc(-c3ccccn3)nc3c(Cl)cccc23)cc1OC`, the percent span entry was “inactive”.
As for `CCCC(=O)OCCNc1cc(Sc2nccn2C)c2nonc2c1[N+](=O)[O-]`, the entry is “inactive”.
As for `O=C(O)CC/C(=C\c1cc([N+](=O)[O-])ccc1Cl)c1nc2ccccc2s1`, the entry is “inactive”; as for `COc1ccc(Cc2c(O)nc(SC)n(C(C)=O)c2=O)cc1`, “inactive”; as for `COc1cc(/C=C2\S/C(=N/S(=O)(=O)c3ccccc3)NC2=O)c([N+](=O)[O-])cc1OC`, “inactive”.
As for `O=C(CSc1nnc(-c2cccs2)n1Cc1ccco1)c1ccc2c(c1)OCO2`, the percent span entry was “inactive”.
On to `CC1=NN(c2ccc(C)cc2)C(=O)/C1=C\c1ccc(Br)s1`, for which the percent span entry is “inactive”.
As for `Cc1ccc(OCC(=O)NCc2ccccn2)c(Br)c1`, the percent span entry is “inactive”.
As for `Cc1cnnn1-c1ccc(C(=O)CCl)cc1`, the entry is “inactive”; as for `COc1ccc(-c2nnc(SCC(=O)Nc3nc4ccccc4s3)n2C)cc1`, “inactive”; as for `c1ccc(C2=Nc3cccc4cccc(c34)N2)cc1`, “inactive”.
As for `COc1ccc(NC(=O)C2=C(C)NC(=O)NC2c2cccc(OC)c2OC)c(OC)c1` (centres undefined), the percent span entry was “inactive”.
As for `CSc1n[nH]c2nc3c(c(=O)n12)C1(CCCC1)Cc1ccccc1-3`, the percent span result is “inactive”.
Regarding `N#C/C(=C(/O)CN1CCN(c2ccccc2F)CC1)c1nc(-c2ccccc2)cs1`, the percent span result was “inactive”.
Turning to `Cc1ccc(Nc2nc(-c3ccccc3)c(CC(=O)O)s2)cc1`, the percent span entry was “inactive”.
On to `Clc1ccc2c(N/N=C/c3cccc(Br)c3)ccnc2c1`, for which the percent span result is “inactive”.
For the compound `CCOc1ccc(N2C(=O)C(Cl)=C(Nc3ccccc3O)C2=O)cc1`, the percent span result is “inactive”.
`O=C(COC(=O)CCCN=C1NS(=O)(=O)c2ccccc21)NC(=O)NC1CCCC1`: the percent span result is “inactive”.
As to `CCOC(=O)C1=C(CP(=O)(c2ccccc2)c2ccccc2)NC(=O)NC1c1ccc(OC)cc1` (centres undefined), the percent span entry is “inactive”.
As for `CC(C)c1ccc(C2CC(c3ccc(Br)cc3)=NN2C(N)=S)cc1` (centres undefined), the percent span entry was “inactive”.
`O=C(NCc1ccccn1)c1ccc2nc(-c3ccco3)c(-c3ccco3)nc2c1`: the percent span entry is “inactive”.
For `CCN1CCN(c2cc(C)c3cc(NC(=S)N4CCN(c5ccccc5)CC4)ccc3n2)CC1`, the percent span entry was “inactive”.
Turning to `CCOC(=O)C1=C(Cc2ccc(OC)cc2)C(=O)c2ccccc2C1=O`, the percent span result is “inactive”.
Consider `COc1ccc(S(=O)(=O)NCCSc2ccc(Cl)cc2)cc1OC`, for which the percent span entry is “inactive”.
In the case of `CCCOc1ccc(-c2c(C(=O)N/N=C/c3ccc(OC)cc3)nnn2-c2nonc2N)cc1`, the percent span result was “inactive”.
As for `COc1ccc(CCNC(=O)c2ccc3nc(-c4ccco4)c(-c4ccco4)nc3c2)cc1OC`, the percent span entry was “inactive”.
`O=C(O)c1ccc(NS(=O)(=O)c2ccc3c(c2)C(=O)c2ccccc2C3=O)cc1`: the percent span result is “inactive”.
For the compound `CCc1ccc(NC(=O)CC2NCCNC2=O)cc1` (centres undefined), the percent span result is “inactive”.
As to `COc1c(F)c(F)c(C(=O)Nc2ccccc2N2CCN(C(=O)C(C)C)CC2)c(F)c1F`, the percent span entry is “inactive”.
For `COc1ccc(-n2c(NC(=O)c3ccco3)c(C#N)c3nc4ccccc4nc32)cc1`, the percent span entry was “inactive”.
On to `CCN(C(=O)COC(=O)c1cc(-c2ccc(C)o2)nc2ccccc12)C1CCS(=O)(=O)C1` (centres undefined), for which the percent span result was “inactive”.
Turning to `COc1cc(C2Nc3cccc4cccc(c34)N2)cc(OC)c1O`, the percent span entry is “inactive”.
Consider `CCOC(=O)c1cc2c(=O)n3ccccc3nc2n(Cc2ccco2)c1=NC(=O)c1ccccc1OC`, for which the percent span entry is “inactive”.
In the case of `COc1ccc(NC(=O)/C(Cl)=C(/Cl)S(=O)Cc2ccccc2)cn1` (centres undefined), the percent span entry was “inactive”.
For the compound `Cc1cc(/C=C(/C#N)C(=O)Nc2ccc(Cl)cc2)c(C)n1-c1cccnc1`, the percent span result is “inactive”.
Take `CC1CC2=C(NC(=S)NC2c2cccc(F)c2)/C(=C/c2cccc(F)c2)C1` (centres undefined): the percent span entry is “inactive”.
Then `Fc1ccc(C2=Nn3c(Cc4ccccc4F)nnc3SC2)cc1`, with “inactive”.
Then `CCOC(=O)CSC1=NC(=O)/C(=C/c2ccc(Br)cc2)S1`, with “inactive”; and `Cn1c(N)c(C(=O)COC(=O)c2cc(-c3ccco3)nc3ccccc23)c(=O)n(Cc2ccccc2)c1=O`, with “inactive”; and `CCN1CCN(c2ccc(NC(=O)c3ccc4c(c3)[nH]c(=O)n4Cc3ccc(OC)cc3)cc2)CC1`, with “inactive”.
With `CCn1c(C)nc2cc(C(=O)N/N=C/c3ccc(O)c(O)c3O)ccc21`, the percent span entry is “inactive”.
For the compound `COc1ccc2oc(-c3ccccc3)c(C(=O)N3CCOCC3)c2c1`, the percent span result is “inactive”.
As to `Cc1ccccc1-n1nc(SCC(=O)O)sc1=S`, the percent span entry was “inactive”.
As to `c1coc(C2=Nc3cccc4cccc(c34)N2)c1`, the percent span result is “inactive”.
In the case of `O=C(Nc1ccccc1)Nc1ccc2ncoc2c1`, the percent span result is “inactive”.
In the case of `COc1ccc(CC(=O)Nc2ccc(C(=O)Nc3nccs3)cc2)cc1OC`, the percent span result is “inactive”.
Then `O=C(OCC(=O)c1ccc[nH]1)c1ccccc1`, with “inactive”.
As for `Cn1c(N)c(C(=O)COC(=O)c2cc(-c3ccco3)nc3ccccc23)c(=O)n(C)c1=O`, the entry is “inactive”; as for `CC(C)c1ccc(/C=N/NC(=O)c2ccccc2Cl)cc1`, “inactive”; as for `CCN1/C(=C/c2ccc3cc(C)ccc3[n+]2CC)Sc2cc(C)c(C)cc21`, “inactive”.
As to `Cc1cccc(-n2c(O)c(/C=N/N3CCOCC3)c(=O)[nH]c2=S)c1`, the percent span entry was “inactive”.
In the case of `CCOc1ccc(NCc2ccccc2OCc2cccc(F)c2)cc1`, the percent span entry is “inactive”.
Turning to `CCC(=O)OCCNc1cc(Sc2nc3ccccc3[nH]2)c2nonc2c1[N+](=O)[O-]`, the percent span result is “inactive”.
Consider `COc1ccccc1NC(=O)CSc1ncn(-c2ccccc2)n1`, for which the percent span result was “inactive”.
Turning to `Cc1cc(N2CCN(C)CC2)nc2ccc(NC(=S)N3CCN(c4ccc(F)cc4)CC3)cc12`, the percent span result was “inactive”.
Consider `COc1ccc(COC(=O)NNC(=O)c2ccccc2Cl)cc1`, for which the percent span result is “inactive”.
Regarding `Nc1ccc(N2CCCCCC2)cc1`, the percent span entry is “inactive”.
`COc1ccc(NC(=O)c2ccco2)cc1NC(=O)c1ccco1`: the percent span result was “inactive”.
As for `CCN1CCN(c2cc(C)c3cc(NC(=S)N4CC(C)CC(C)C4)ccc3n2)CC1` (centres undefined), the entry is “inactive”; as for `Cn1c(N)c(C(=O)COC(=O)c2cncc(Br)c2)c(=O)n(C)c1=O`, “inactive”; as for `CC(=O)Nc1ccc(NC2=C(Cl)C(=O)c3ccccc3C2=O)cc1`, “inactive”.
